{"source": "patent US10973782B2", "about": "“Pharmaceutical composition for improving or preventing progression of chronic kidney disease” (Frimline Private Limited, priority 2017, dated 2021)", "data": [{"test_system": "5/6 Nephrectomy induced chronic kidney disease (CKD)", "test": "5/6 Nephrectomy induced chronic kidney disease in rat", "type": "in vivo, rat (male Wistar)", "settings": "5/6 nephrectomy rats, daily p.o. treatment for 10 weeks, end of 10th week, mean", "description": "(§1) Screening effect against 5/6 Nephrectomy induced chronic kidney disease (CKD) of synergistic combination or composition/formulation comprising PEA and other natural ingredients in rat. The following trials were carried out:\n(§2) 54 male Wistar rats (Rat Rattus) (6 per group) were maintained in animal house in a light/dark atmosphere based on a 12 hour cycle having temperature and relative humidity in the range of 25±2° C. and 30-70% respectively. To maintain the appropriate conditions, temperature and relative humidity were recorded three times daily. During complete experiment, animals were supplied with the standard certified rat pellet feed (manufactured by Keval sales corporation, Vadodara) and drinking water treated by the reverse osmosis ad libitum.\n(§3) In order to evaluate the activity against chronic kidney disease, fifty four (54) male rats were screened and divided in to nine groups. For a comparative analysis, groups were divided as sham control (Group 1), disease control (Group 2), treatment groups with individual components (Group 3, Group 4, Group 5 and Group 6 as PEA, Cholecalciferol, Quercetin and Resveratrol respectively), test composition formulation of the present invention (Group 7 and Group 8 as PEA combinations) and reference standard drug (Group 9).\n(§4) The animals under consideration were examined for a study period of 10 weeks and two-stage surgical procedure for kidney ligation and removal were performed.\n(§5) Stage one: A ventral midline incision into the abdomen was made to expose the animal's left kidney, and the organ was freed from the surrounding tissue. A piece of suture was placed and ligated around each pole of the kidney at its one-third position. The one-third kidney on each pole was excised beyond the ligatures and the abdominal incision was closed.\n(§6) Stage two: This procedure was performed 5-7 days after stage one. The animals were placed in ventral recumbancy and an incision was made parallel to the midline. The abdominal cavity was entered and the right kidney was made free from the surrounding tissue. The kidney was gently pulled out from the incision, and the adrenal gland was freed and replaced into the abdominal cavity. The renal blood vessels and the ureter were ligated or cauterized. The kidney was then removed by transecting the vessels and ureter just distal to the ligature or cauterized section. The skin incision was closed with wound clips.\n(§7) Treatment. All treatment groups were treated on daily basis for 10 weeks after stage two of surgery. After completion of the study at the end of 10th week, each group was analyzed in terms of the evaluating parameters such as blood collection, biochemistry analysis, urine analysis and histopathology of kidney.", "units": {"Serum Analysis BUN": "mg/dL", "Serum Analysis Creatinine": "mg/dL", "Serum Analysis IL-6": "pg/mL", "Urine Analysis Glomerular Filtration Rate": "mL/min/kg"}, "values": [{"smiles": "C=C1CC[C@H](O)C/C1=C/C=C1\\CCC[C@]2(C)[C@@H]([C@H](C)CCCC(C)C)CC[C@@H]12", "note": "[Cholecalciferol]", "Serum Analysis BUN": 75.63, "Serum Analysis Creatinine": 1.40, "Serum Analysis IL-6": 178.45, "Urine Analysis Glomerular Filtration Rate": 5.65}, {"smiles": "CCCCc1nc(Cl)c(CO)n1Cc1ccc(-c2ccccc2-c2nn[nH]n2)cc1", "note": "[Losartan]", "Serum Analysis BUN": 52.81, "Serum Analysis Creatinine": 1.22, "Serum Analysis IL-6": 141.67, "Urine Analysis Glomerular Filtration Rate": 6.80}, {"smiles": "CCCCCCCCCCCCCCCC(=O)NCCO", "note": "[PEA, Palmitoylethanolamide]", "Serum Analysis BUN": 60.98, "Serum Analysis Creatinine": 1.12, "Serum Analysis IL-6": 162.18, "Urine Analysis Glomerular Filtration Rate": 6.50}, {"smiles": "O=c1c(O)c(-c2ccc(O)c(O)c2)oc2cc(O)cc(O)c12", "note": "[Quercetin]", "Serum Analysis BUN": 76.62, "Serum Analysis Creatinine": 1.44, "Serum Analysis IL-6": 175.15, "Urine Analysis Glomerular Filtration Rate": 5.64}, {"smiles": "Oc1ccc(C=Cc2cc(O)cc(O)c2)cc1", "note": "[Resveratrol]", "Serum Analysis BUN": 74.51, "Serum Analysis Creatinine": 1.41, "Serum Analysis IL-6": 174.42, "Urine Analysis Glomerular Filtration Rate": 5.75}]}, {"test_system": "5/6 Nephrectomy induced chronic kidney disease (CKD)", "test": "5/6 Nephrectomy induced chronic kidney disease in rat", "type": "in vivo, rat (male Wistar)", "settings": "serum, 5/6 nephrectomy rats, daily p.o. 10 weeks, mean", "description": "as §1, §2, §3, §4, §5, §6, §7", "units": {"% Decreased Creatinine": "%", "% Decreased in BUN": "%", "% Decreased in IL-6": "%"}, "values": [{"smiles": "C=C1CC[C@H](O)C/C1=C/C=C1\\CCC[C@]2(C)[C@@H]([C@H](C)CCCC(C)C)CC[C@@H]12", "note": "[Cholecalciferol]", "% Decreased Creatinine": 7.02, "% Decreased in BUN": 8.05, "% Decreased in IL-6": 1.22}, {"smiles": "CCCCc1nc(Cl)c(CO)n1Cc1ccc(-c2ccccc2-c2nn[nH]n2)cc1", "note": "[Losartan]", "% Decreased Creatinine": 18.98, "% Decreased in BUN": 35.80, "% Decreased in IL-6": 21.58}, {"smiles": "CCCCCCCCCCCCCCCC(=O)NCCO", "note": "[PEA, Palmitoylethanolamide]", "% Decreased Creatinine": 25.63, "% Decreased in BUN": 25.87, "% Decreased in IL-6": 10.22}, {"smiles": "O=c1c(O)c(-c2ccc(O)c(O)c2)oc2cc(O)cc(O)c12", "note": "[Quercetin]", "% Decreased Creatinine": 4.02, "% Decreased in BUN": 6.85, "% Decreased in IL-6": 3.04}, {"smiles": "Oc1ccc(C=Cc2cc(O)cc(O)c2)cc1", "note": "[Resveratrol]", "% Decreased Creatinine": 6.30, "% Decreased in BUN": 9.42, "% Decreased in IL-6": 3.45}]}, {"test_system": "5/6 Nephrectomy induced chronic kidney disease (CKD)", "test": "5/6 Nephrectomy induced chronic kidney disease in rat", "type": "in vivo, rat (male Wistar)", "settings": "urine analysis, 5/6 nephrectomy rats, daily p.o. 10 weeks, mean", "description": "as §1, §2, §3, §4, §5, §6, §7", "units": {"% Increased GFR": "%"}, "values": [{"smiles": "C=C1CC[C@H](O)C/C1=C/C=C1\\CCC[C@]2(C)[C@@H]([C@H](C)CCCC(C)C)CC[C@@H]12", "note": "[Cholecalciferol]", "% Increased GFR": 2.73}, {"smiles": "CCCCc1nc(Cl)c(CO)n1Cc1ccc(-c2ccccc2-c2nn[nH]n2)cc1", "note": "[Losartan]", "% Increased GFR": 23.64}, {"smiles": "CCCCCCCCCCCCCCCC(=O)NCCO", "note": "[PEA, Palmitoylethanolamide]", "% Increased GFR": 18.18}, {"smiles": "O=c1c(O)c(-c2ccc(O)c(O)c2)oc2cc(O)cc(O)c12", "note": "[Quercetin]", "% Increased GFR": 2.55}, {"smiles": "Oc1ccc(C=Cc2cc(O)cc(O)c2)cc1", "note": "[Resveratrol]", "% Increased GFR": 4.55}]}]}
